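Where inhibition never reached the appropriate level, the endpoint shown equals the highest concentration tested. Otherwise, values were interpolated linearly from a five-concentration, 48-hour dose response in 96-well plates. The concentration for 50% growth inhibition is given as GI50. The concentration for full growth arrest is given as TGI.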
How the values were obtained:
Experiment in all cases: growth of human tumour cells (NCI), 48 h
[1] = tested on: EKVX NSCLC
[2] = tested on: A549 NSCLC
[3] = tested on: DU-145 prostate
[4] = tested on: HT29 colon
[5] = tested on: NCI-H23 lung
[6] = tested on: COLO 205 colon
[7] = tested on: TK-10 renal
[8] = tested on: HCC-2998 colon
[9] = tested on: SW-620 colon
[10] = tested on: NCI-H226 lung
[11] = tested on: HCT-15 colon
[12] = tested on: OVCAR-5 ovarian
[13] = tested on: ACHN renal
[14] = tested on: SNB-19 CNS
[15] = tested on: SF-295 CNS
[16] = tested on: MALME-3M melanoma
[17] = tested on: MDA-MB-231 breast
[18] = tested on: MCF7 breast
[19] = tested on: IGROV1 ovarian
[20] = tested on: UACC-62 melanoma
[21] = tested on: CCRF-CEM leukemia
[22] = tested on: A498 renal
[23] = tested on: MDA-MB-435
[24] = tested on: SK-OV-3 ovarian
[25] = tested on: CAKI-1 renal
[26] = tested on: SK-MEL-28 melanoma
[27] = tested on: SF-268 CNS
[28] = tested on: BT-549 breast
[29] = tested on: SNB-75 CNS
[30] = tested on: LOX IMVI melanoma
[31] = tested on: KM12 colon
[32] = tested on: HS 578T breast
[33] = tested on: OVCAR-3 ovarian
[34] = tested on: T-47D breast
[35] = tested on: NCI/ADR-RES ovarian
[36] = tested on: 786-0 renal
[37] = tested on: UO-31 renal
[38] = tested on: SN12C renal
[39] = tested on: OVCAR-8 ovarian
[40] = tested on: RXF 393 renal
[41] = tested on: SR leukemia
[42] = tested on: NCI-H522 lung
[43] = tested on: HL-60(TB) leukemia
[44] = tested on: HOP-92 NSCLC
[45] = tested on: HCT-116 colon
[46] = tested on: NCI-H460 lung
[47] = tested on: HOP-62 NSCLC
[48] = tested on: SK-MEL-5 melanoma
[49] = tested on: U251 CNS
[50] = tested on: M14 melanoma
[51] = tested on: PC-3 prostate
[52] = tested on: K-562 leukemia
[53] = tested on: SK-MEL-2 melanoma
[54] = tested on: UACC-257 melanoma

Question: What does the source list for `O=C1C=CC(=O)c2cc3cc(CBr)ccc3cc21`?
Answer: GI50 [1]: 24.1 µM; TGI [1]: 55.7 µM; GI50 [2]: 9.07 µM; GI50 [3]: 2.35 µM; TGI [3]: 6.54 µM; GI50 [4]: 2.62 µM; TGI [4]: > 100 µM; GI50 [5]: 9.84 µM; TGI [5]: 30.8 µM; GI50 [6]: 4.19 µM; TGI [6]: 28.7 µM; GI50 [7]: 3.54 µM; TGI [7]: 16.7 µM; GI50 [8]: 6.16 µM; TGI [8]: 19.2 µM; GI50 [9]: 2.29 µM; TGI [9]: 4.97 µM; GI50 [10]: 27.4 µM; TGI [10]: 71.2 µM; GI50 [11]: 5.95 µM; TGI [11]: 17.3 µM; GI50 [12]: 9.96 µM; TGI [12]: 33.6 µM; GI50 [13]: 1.82 µM; TGI [13]: 3.71 µM; GI50 [14]: 18.1 µM; TGI [14]: > 55 µM; GI50 [15]: 25.9 µM; TGI [15]: > 73.9 µM; GI50 [16]: 3.1 µM; TGI [16]: 29.3 µM; GI50 [17]: 1.95 µM; TGI [17]: 8.09 µM; GI50 [18]: 9.73 µM; TGI [18]: > 100 µM; GI50 [19]: 7.75 µM; TGI [19]: > 73.9 µM; GI50 [20]: 5.61 µM; TGI [20]: 15.6 µM; GI50 [21]: 1.89 µM; TGI [21]: > 100 µM; GI50 [22]: 17.5 µM; TGI [22]: 34.4 µM; GI50 [23]: 11.8 µM; TGI [23]: 33.7 µM; GI50 [24]: 19.1 µM; TGI [24]: > 57.6 µM; GI50 [25]: 2.34 µM; TGI [25]: 6.25 µM; GI50 [26]: 7.31 µM; TGI [26]: > 63.1 µM; GI50 [27]: 9.4 µM; TGI [27]: > 73.9 µM; GI50 [28]: 2.75 µM; TGI [28]: 8.96 µM; GI50 [29]: 21.5 µM; TGI [29]: 98.1 µM; GI50 [30]: 1.44 µM; TGI [30]: 3.02 µM; GI50 [31]: 17.5 µM; TGI [31]: 38.4 µM; GI50 [32]: 28.7 µM; TGI [32]: > 93.2 µM; GI50 [33]: 7.43 µM; TGI [33]: > 21.8 µM; GI50 [34]: 2.12 µM; TGI [34]: > 26.2 µM; GI50 [35]: 6.78 µM; TGI [35]: 32.4 µM; GI50 [36]: 2.28 µM; TGI [36]: 5.24 µM; GI50 [37]: 3.59 µM; TGI [37]: > 100 µM; GI50 [38]: 0.741 µM; TGI [38]: 2.91 µM; GI50 [39]: 5.88 µM; TGI [39]: > 77.3 µM; GI50 [40]: 11 µM; TGI [40]: 27.9 µM; GI50 [41]: 0.0371 µM; TGI [41]: 0.0923 µM; GI50 [42]: 4.33 µM; TGI [42]: > 25.8 µM; TGI [43]: 0.2 µM; GI50 [44]: 3.18 µM; TGI [44]: 9.93 µM; GI50 [45]: 0.606 µM; TGI [45]: 1.89 µM; GI50 [46]: 22 µM; TGI [46]: > 80.3 µM; GI50 [47]: 16 µM; TGI [47]: 37.8 µM; GI50 [48]: 14.9 µM; TGI [48]: 36 µM; GI50 [49]: 14.4 µM; TGI [49]: 36.2 µM; GI50 [50]: 8.58 µM; TGI [50]: 23.4 µM; GI50 [51]: 3.85 µM; TGI [51]: 8.9 µM; GI50 [52]: 0.339 µM; TGI [52]: 6.03 µM; GI50 [53]: 33.3 µM; TGI [53]: > 83.5 µM; GI50 [54]: 56.9 µM; TGI [54]: > 100 µM

Source: PubChem BioAssay (NCI)
